Laboratory results: ChEMBL document CHEMBL5113390, “Design, synthesis and antitumor evaluation of novel 1H-indole-2-carboxylic acid derivatives targeting 14-3-3η protein” (Eur J Med Chem, 2022)
pIC50, pKd: −log10 of the molar value. Calls of active or inactive are those of the source. No cut-off for these calls is given here.

Experiments:
Hep 3B2 [1] = test: Induction of cell cycle arrest in human Hep3B cells assessed as accumulation at G0/G1 phase at 2.5 uM incubated for 48 hrs by flow cytometry analysis (reference value: 60.85 %); type: functional
Hep 3B2 [2] = test: Induction of apoptosis in human Hep3B cells assessed as early apoptotic cells at 10 uM measured after 48 hrs by Annexin V/FITC-PI staining based flow cytometry assay (reference value: 6.65%); type: functional
Hep 3B2 [3] = test: Induction of apoptosis in human Hep3B cells assessed as late apoptotic cells at 5 uM measured after 48 hrs by Annexin V/FITC-PI staining based flow cytometry assay (reference value: 3.14%); type: functional
Hep 3B2 [4] = test: Induction of cell cycle arrest in human Hep3B cells assessed as accumulation at G0/G1 phase at 1 uM incubated for 48 hrs by flow cytometry analysis (reference value: 60.85 %); type: functional
[5] = target: T1, 14-3-3 protein eta (Homo sapiens) (UniProt Q04917); test: Inhibition of 14-3-3 eta in human Hep3B cells assessed as reduction in AKT phosphorylation at S473 residue measured after 24 hrs by western blot analysis; type: cell-based; conditions: dose 0.5-5 µM, DDE = dose-dependent effect
T1 sequence (whole entry): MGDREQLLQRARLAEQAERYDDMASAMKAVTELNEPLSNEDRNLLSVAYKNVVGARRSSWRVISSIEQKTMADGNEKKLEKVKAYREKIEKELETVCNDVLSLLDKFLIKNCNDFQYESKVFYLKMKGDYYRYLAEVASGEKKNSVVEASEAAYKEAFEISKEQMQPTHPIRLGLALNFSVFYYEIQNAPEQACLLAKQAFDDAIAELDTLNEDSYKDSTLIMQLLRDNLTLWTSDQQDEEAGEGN

Hep 3B2 [6] = test: Induction of apoptosis in human Hep3B cells assessed as upregulation of cleaved caspase-3 expression at 5 to 20 uM measured after 48 hrs by Western blot analysis; type: functional, cell-based; conditions: dose 5-20 µM
SMMC-7721 = test: Antiproliferative activity against human SMMC-7721 cells assessed as reduction in cell viability incubated for 72 hrs by MTT assay; type: functional, cell-based; conditions: SMMC-7721, 72 h
Hep 3B2 [7] = test: Induction of apoptosis in human Hep3B cells assessed as early apoptotic cells at 1 uM measured after 48 hrs by Annexin V/FITC-PI staining based flow cytometry assay (reference value: 6.65%); type: functional
Hep 3B2 [8] = test: Induction of cell cycle arrest in human Hep3B cells assessed as accumulation at S phase at 2.5 uM incubated for 48 hrs by flow cytometry analysis (reference value: 30.56 %); type: functional
hERG [9] = test: Selectivity ratio of IC50 for inhibition of hERG by automated patch clamp analysis to IC50 for antiproliferative activity against human HepG2 cells assessed as reduction in cell viability incubated for 72 hrs by MTT assay; type: toxicity, cell-based; conditions: read-out: Ratio IC50
Hep 3B2 [10] = test: Induction of cell cycle arrest in human Hep3B cells assessed as accumulation at S phase at 5 uM incubated for 48 hrs by flow cytometry analysis (reference value: 30.56 %); type: functional
[11] = Metabolic stability in human liver microsomes assessed as half life; type: ADME, Microsome
Hep 3B2 [12] = test: Induction of apoptosis in human Hep3B cells assessed as viable cells at 5 uM measured after 48 hrs by Annexin V/FITC-PI staining based flow cytometry assay (reference value: 90.09%); type: functional; conditions: read-out: Activity
hERG [13] = test: Selectivity ratio of IC50 for inhibition of hERG by automated patch clamp analysis to IC50 for antiproliferative activity against human BEL-7402/5-FU cells assessed as reduction in cell viability incubated for 72 hrs by MTT assay; type: toxicity, cell-based; conditions: read-out: Ratio IC50
HepG2 = test: Antiproliferative activity against human HepG2 cells assessed as reduction in cell viability incubated for 72 hrs by MTT assay; type: functional, cell-based; conditions: HepG2, 72 h
SNU-387 = test: Antiproliferative activity against human SNU-387 cells assessed as reduction in cell viability incubated for 72 hrs by MTT assay; type: functional, cell-based; conditions: SNU-387, 72 h
hERG [14] = test: Selectivity ratio of IC50 for inhibition of hERG by automated patch clamp analysis to IC50 for antiproliferative activity against human Hep3B cells assessed as reduction in cell viability incubated for 72 hrs by MTT assay; type: toxicity, cell-based; conditions: read-out: Ratio IC50
hERG [15] = test: Selectivity ratio of IC50 for inhibition of hERG by automated patch clamp analysis to IC50 for antiproliferative activity against human SMMC-7721 cells assessed as reduction in cell viability incubated for 72 hrs by MTT assay; type: toxicity, cell-based; conditions: read-out: Ratio IC50
Hep 3B2 [16] = test: Induction of apoptosis in human Hep3B cells assessed as upregulation of cleaved caspase-8 expression measured after 48 hrs by Western blot analysis; type: functional, cell-based; conditions: dose 5-20 µM, DDE = dose-dependent effect
Bel7402/5-FU = test: Antiproliferative activity against human BEL-7402/5-FU cells overexpressing 14-3-3 eta assessed as reduction in cell viability incubated for 72 hrs by MTT assay; type: functional, cell-based
Bel-7402 = test: Antiproliferative activity against human Bel-7402 cells assessed as reduction in cell viability incubated for 72 hrs by MTT assay; type: functional, cell-based; conditions: Bel-7402, 72 h
Hep 3B2 [17] = test: Induction of apoptosis in human Hep3B cells assessed as early apoptotic cells at 2.5 uM measured after 48 hrs by Annexin V/FITC-PI staining based flow cytometry assay (reference value: 6.65%); type: functional
[18] = target: T1, 14-3-3 protein eta (Homo sapiens); test: Inhibition of 14-3-3 eta in human Hep3B cells assessed as reduction in ERK phosphorylation measured after 24 hrs by western blot analysis; type: cell-based; conditions: dose 0.5-5 µM, DDE = dose-dependent effect
Hep 3B2 [19] = test: Induction of apoptosis in human Hep3B cells assessed as necrotic cells at 5 uM measured after 48 hrs by Annexin V/FITC-PI staining based flow cytometry assay (reference value: 0.12%); type: functional
Hep 3B2 [20] = test: Induction of apoptosis in human Hep3B cells assessed as viable cells at 1 uM measured after 48 hrs by Annexin V/FITC-PI staining based flow cytometry assay (reference value: 90.09%); type: functional; conditions: read-out: Activity
Hep 3B2 [21] = test: Induction of apoptosis in human Hep3B cells assessed as necrotic cells at 1 uM measured after 48 hrs by Annexin V/FITC-PI staining based flow cytometry assay (reference value: 0.12%); type: functional
Hep 3B2 [22] = test: Antiproliferative activity against human Hep3B cells assessed as reduction in cell viability measured after 7 days by crystal violet staining based assay; type: functional; conditions: dose 1-10 µM, time 7.0 day, DDE = dose-dependent effect
Hep 3B2 [23] = test: Inhibition of cell invasion in human Hep3B cells incubated for 72 hrs by crystal violet staining based transwell assay; type: functional; conditions: dose 1-10 µM, DDE = dose-dependent effect
14-3-3 protein eta = target: T2, 14-3-3 protein eta (Homo sapiens, UniProt Q04917); test: Binding affinity to 14-3-3 eta (unknown origin) assessed as dissociation constant by biolayer interferometry assay
T2 sequence (Q04917 whole entry): T1 sequence (whole entry)

Hep 3B2 [24] = test: Induction of apoptosis in human Hep3B cells assessed as viable cells at 2.5 uM measured after 48 hrs by Annexin V/FITC-PI staining based flow cytometry assay (reference value: 90.09%); type: functional; conditions: read-out: Activity
Hep 3B2 [25] = test: Induction of cell cycle arrest in human Hep3B cells assessed as accumulation at G2/M phase at 2.5 uM incubated for 48 hrs by flow cytometry analysis (reference value: 8.59 %); type: functional
hERG [26] = test: Selectivity ratio of IC50 for inhibition of hERG by automated patch clamp analysis to IC50 for antiproliferative activity against human SNU-387 cells assessed as reduction in cell viability incubated for 72 hrs by MTT assay; type: toxicity, cell-based; conditions: read-out: Ratio IC50

- inhibition [5]: Dde
- pIC50 (SMMC-7721): 5.53
- half-life [11]: 7.31 min
- pIC50 (HepG2): 5.46
- pIC50 (SNU-387): 5.26
- pIC50 (Bel7402/5-FU): 5.34
- pIC50 (Bel-7402): 5.23
- inhibition [18]: Dde
- pKd (14-3-3 protein eta): 4.46
Compound: COc1cccc(CNCc2c(C(=O)O)n(Cc3ccc(C)cc3)c3cc(C(C)C)ccc23)c1
- Activity (Hep 3B2 [1]): 59.12%
- Activity (Hep 3B2 [2]): 21.73%
- Activity (Hep 3B2 [3]): 7.79%
- Activity (Hep 3B2 [4]): 58.63%
- Activity (Hep 3B2 [6]): Active
- Activity (Hep 3B2 [7]): 6.8%
- Activity (Hep 3B2 [8]): 36.4%
- selectivity ratio at 72 h (hERG [9]): 10.1
- Activity (Hep 3B2 [10]): 37.73%
- viability at 5 µM (Hep 3B2 [12]): 79.9%
- selectivity ratio at 72 h (hERG [13]): 5.84
- selectivity ratio at 72 h (hERG [14]): 8.5
- selectivity ratio at 72 h (hERG [15]): 11.8
- Activity (Hep 3B2 [16]): Dde
- Activity (Hep 3B2 [17]): 8.74%
- Activity (Hep 3B2 [19]): 1.07%
- viability at 1 µM (Hep 3B2 [20]): 88%
- Activity (Hep 3B2 [21]): 0.38%
- Activity (Hep 3B2 [22]): Dde
- inhibition (Hep 3B2 [23]): Dde
- viability at 2.5 µM (Hep 3B2 [24]): 86%
- Activity (Hep 3B2 [25]): 4.47%
- selectivity ratio at 72 h (hERG [26]): 6.32
